Where two headings read alike, the source gives them in different places.

In data set [1] the test system is HCT116 p53−/−: CYC116 resistant clones. In words: MTT based cell proliferation assay of ABT-263. Particulars: polyploid clones, 96 hrs MTT. The protocol:
(§1) The MTT assay was performed in three independent replicates (n=3).
(§2) This method is performed based on the principle that viable cells can reduce yellow colored MTT (3-(4,5-dimethylthiazol-2-yl)-2,5-diphenyltetrazolium bromide) salt to purple colored formazan. The intensity of the purple colored produced is directly proportional to number of viable cells, which can be measured […]. To determine the half inhibitory concentration (IC50) of any medicinal agent MTT assay is very reliable and well accepted. […] The assay was carried out in 2 technical replicates for each concentration and in 3 biological replicates. Alongside blank and controls were included and incubated for 96 hrs. At the end of the assay time point 10 μl of MTT/well (Sigma) (10 mg/ml) was added and incubated until the appearance of violet formazan crystals. The formazan was dissolved with 100 μl/well 10% aqueous SDS (pH: 5.5) by incubating the plates at 37° C. overnight. The optical density was measured at 540 nm using the Labsystem IMS reader and the […] values were determined using Chemorezist software.

The test system of data set [2] is p53+/+ ZM447439 resistant clones. In words: MTT based cell proliferation assay of ABT-263. To be noted: diploid p53+/+ ZM447439 resistant clones, 96 hrs MTT. As for the experimental part:
as §1, §2

The test system of data set [3] is p53−/− ZM447439 resistant clones. In words: MTT based cell proliferation assay of ABT-263. Particulars: diploid p53−/− ZM447439 resistant clones, 96 hrs MTT. As for the experimental part: as §1, §2
The next data set concerns the target Bcl-w (Homo sapiens, UniProt Q92843). Particulars: cited from earlier work.
Another data set has as its system HCT116 p53+/+ parent. As to the kind of experiment: cells. To be noted: for IC50: Homo sapiens. The protocol: as §2
In a further data set the test system is HCT116 p53−/− parent. As to the kind of experiment: Cell proliferation (MTT) IC50, cross-resistance profile. To be noted: Homo sapiens, HCT-116. The class given is cell-based.
Data set [4] has as its system R1.1 (HCT116 p53+/+ CYC116 resistant clone). The description is as above. Particulars: for IC50: Homo sapiens, HCT-116, clone R1.1; for fold increase of IC50 vs parent: clone R1.1 vs HCT116 p53+/+ parent. It is filed as cell-based. As for the experimental part:
(§3) Colonies were isolated and bulked up for further studies. […] [1]
as §2

The subject of data set [5] is R1.2 (HCT116 p53+/+ CYC116 resistant clone). The data set is described as above. It is filed as cell-based. Particulars: for IC50: Homo sapiens, HCT-116, clone R1.2; for fold increase of IC50 vs parent: clone R1.2 vs HCT116 p53+/+ parent. The protocol:
as §3, §2

For data set [6], the system named is R1.3 (HCT116 p53+/+ CYC116 resistant clone). Described as above. The class given is cell-based. To be noted: for IC50: Homo sapiens, HCT-116, clone R1.3; for fold increase of IC50 vs parent: clone R1.3 vs HCT116 p53+/+ parent. As for the experimental part:
as §3, §2

In data set [7] the test system is R2.1 (HCT116 p53−/− CYC116 resistant clone). The data set is described as above. It is filed as cell-based. Particulars: for IC50: Homo sapiens, HCT-116, clone R2.1; for fold increase of IC50 vs parent: clone R2.1 vs HCT116 p53−/− parent. As for the experimental part:
as §3, §2

In data set [8] the test system is R2.2 (HCT116 p53−/− CYC116 resistant clone). The data set is described as above. Particulars: for IC50: Homo sapiens, HCT-116, clone R2.2; for fold increase of IC50 vs parent: clone R2.2 vs HCT116 p53−/− parent. The class given is cell-based. As for the experimental part:
as §3, §2

Data set [9] concerns R2.3 (HCT116 p53−/− CYC116 resistant clone). The data set is described as above. It is filed as cell-based. To be noted: for IC50: Homo sapiens, HCT-116, clone R2.3; for fold increase of IC50 vs parent: clone R2.3 vs HCT116 p53−/− parent. As for the experimental part: as §3, §2
Data set [10] relates to R3.1 (HCT116 p53+/+ ZM447439 resistant clone). The data set is described as above. The class given is cell-based. Particulars: for IC50: Homo sapiens, HCT-116, clone R3.1; for fold increase of IC50 vs parent: clone R3.1 vs HCT116 p53+/+ parent. As for the experimental part: as §3, §2
The test system of data set [11] is R3.2 (HCT116 p53+/+ ZM447439 resistant clone). Described as above. The class given is cell-based. To be noted: for IC50: Homo sapiens, HCT-116, clone R3.2; for fold increase of IC50 vs parent: clone R3.2 vs HCT116 p53+/+ parent. As for the experimental part: as §3, §2
In data set [12] the test system is R3.3 (HCT116 p53+/+ ZM447439 resistant clone). The data set is described as above. The class given is cell-based. To be noted: for IC50: Homo sapiens, HCT-116, clone R3.3; for fold increase of IC50 vs parent: clone R3.3 vs HCT116 p53+/+ parent. The protocol:
as §3, §2

Data set [13] has as its system R4.1 (HCT116 p53−/− ZM447439 resistant clone). The data set is described as above. Particulars: for IC50: Homo sapiens, HCT-116, clone R4.1; for fold increase of IC50 vs parent: clone R4.1 vs HCT116 p53−/− parent. The class given is cell-based. As for the experimental part:
as §3, §2

For data set [14], the system named is R4.2 (HCT116 p53−/− ZM447439 resistant clone). The description is as above. To be noted: for IC50: Homo sapiens, HCT-116, clone R4.2; for fold increase of IC50 vs parent: clone R4.2 vs HCT116 p53−/− parent. The class given is cell-based. The protocol:
as §3, §2

For data set [15], the system named is R4.3 (HCT116 p53−/− ZM447439 resistant clone). Described as above. It is filed as cell-based. Particulars: for IC50: Homo sapiens, HCT-116, clone R4.3; for fold increase of IC50 vs parent: clone R4.3 vs HCT116 p53−/− parent. As for the experimental part:
as §3, §2

Data set [16] deals with one HCT116 p53+/+: CYC116 resistant clone. As to the kind of experiment: MTT assay of CYC116 with or without Bcl-xL siRNA knockdown. The class given is cell-based. Particulars: Homo sapiens, HCT-116. As for the experimental part: as §2
For orientation: Tetrazolium dyes change colour on reduction, which living cells bring about.

A further data set deals with primary tumor samples. In words: 96-h MTT cell proliferation assay on primary tumor biopsies. To be noted: Homo sapiens. The class given is cell-based.
The next data set concerns CYP1A1. As to the kind of experiment: CYP1A1 expression after CYC116 treatment for 48 h. The class given is cell-based. To be noted: HCT116 and HCT116 p53−/− treated with CYC116 for 48 h. The source says: CYP1A1 is involved in the metabolism of polycyclic aromatic hydrocarbons (PAH). In tobacco smokers CYP1A1 transforms PAH into procarcinogens. CYP1A1 expression was reported in pulmonary cancers and also altered expression in many lung tumors (McLemore T. L. et al., Journal of the National Cancer Institute 1990; 82, 1333-39).

A further data set addresses VEGFR2 (Homo sapiens, UniProt P35968). Particulars: cited from earlier work.
Another data set has as its target Flt-3 (Homo sapiens, UniProt P36888). To be noted: cited from earlier work.

Sequence of Bcl-w (Q92843 whole entry): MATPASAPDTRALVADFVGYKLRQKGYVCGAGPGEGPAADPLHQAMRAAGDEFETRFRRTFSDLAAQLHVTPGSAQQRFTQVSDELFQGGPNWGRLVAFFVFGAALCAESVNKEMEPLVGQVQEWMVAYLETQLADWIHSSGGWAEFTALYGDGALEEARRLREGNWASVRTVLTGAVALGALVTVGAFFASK
Sequence of Flt-3 (P36888 27-993): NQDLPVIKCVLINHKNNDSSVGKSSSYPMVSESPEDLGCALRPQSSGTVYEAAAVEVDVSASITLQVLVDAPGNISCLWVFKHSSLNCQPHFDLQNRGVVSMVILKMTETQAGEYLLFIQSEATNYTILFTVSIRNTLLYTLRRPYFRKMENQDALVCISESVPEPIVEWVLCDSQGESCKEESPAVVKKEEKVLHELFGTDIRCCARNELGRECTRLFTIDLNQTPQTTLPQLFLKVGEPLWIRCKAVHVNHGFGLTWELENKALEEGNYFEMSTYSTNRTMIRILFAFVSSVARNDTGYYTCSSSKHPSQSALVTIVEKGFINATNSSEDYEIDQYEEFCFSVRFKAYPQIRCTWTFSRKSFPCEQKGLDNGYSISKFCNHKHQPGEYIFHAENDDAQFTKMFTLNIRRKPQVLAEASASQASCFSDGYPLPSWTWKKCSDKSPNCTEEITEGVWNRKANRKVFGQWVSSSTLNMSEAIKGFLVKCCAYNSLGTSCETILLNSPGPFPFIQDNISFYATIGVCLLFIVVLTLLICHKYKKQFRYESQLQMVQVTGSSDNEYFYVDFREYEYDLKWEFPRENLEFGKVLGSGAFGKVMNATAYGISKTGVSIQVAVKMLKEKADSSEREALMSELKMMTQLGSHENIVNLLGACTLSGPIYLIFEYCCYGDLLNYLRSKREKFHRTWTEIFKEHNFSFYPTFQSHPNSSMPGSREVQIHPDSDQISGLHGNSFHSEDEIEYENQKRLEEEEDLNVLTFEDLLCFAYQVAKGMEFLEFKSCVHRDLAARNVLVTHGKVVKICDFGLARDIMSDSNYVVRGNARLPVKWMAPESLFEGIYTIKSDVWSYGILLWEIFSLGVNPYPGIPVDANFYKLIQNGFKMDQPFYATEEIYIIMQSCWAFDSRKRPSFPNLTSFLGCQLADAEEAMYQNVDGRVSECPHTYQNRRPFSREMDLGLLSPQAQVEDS
Sequence of VEGFR2 (P35968 20-1356): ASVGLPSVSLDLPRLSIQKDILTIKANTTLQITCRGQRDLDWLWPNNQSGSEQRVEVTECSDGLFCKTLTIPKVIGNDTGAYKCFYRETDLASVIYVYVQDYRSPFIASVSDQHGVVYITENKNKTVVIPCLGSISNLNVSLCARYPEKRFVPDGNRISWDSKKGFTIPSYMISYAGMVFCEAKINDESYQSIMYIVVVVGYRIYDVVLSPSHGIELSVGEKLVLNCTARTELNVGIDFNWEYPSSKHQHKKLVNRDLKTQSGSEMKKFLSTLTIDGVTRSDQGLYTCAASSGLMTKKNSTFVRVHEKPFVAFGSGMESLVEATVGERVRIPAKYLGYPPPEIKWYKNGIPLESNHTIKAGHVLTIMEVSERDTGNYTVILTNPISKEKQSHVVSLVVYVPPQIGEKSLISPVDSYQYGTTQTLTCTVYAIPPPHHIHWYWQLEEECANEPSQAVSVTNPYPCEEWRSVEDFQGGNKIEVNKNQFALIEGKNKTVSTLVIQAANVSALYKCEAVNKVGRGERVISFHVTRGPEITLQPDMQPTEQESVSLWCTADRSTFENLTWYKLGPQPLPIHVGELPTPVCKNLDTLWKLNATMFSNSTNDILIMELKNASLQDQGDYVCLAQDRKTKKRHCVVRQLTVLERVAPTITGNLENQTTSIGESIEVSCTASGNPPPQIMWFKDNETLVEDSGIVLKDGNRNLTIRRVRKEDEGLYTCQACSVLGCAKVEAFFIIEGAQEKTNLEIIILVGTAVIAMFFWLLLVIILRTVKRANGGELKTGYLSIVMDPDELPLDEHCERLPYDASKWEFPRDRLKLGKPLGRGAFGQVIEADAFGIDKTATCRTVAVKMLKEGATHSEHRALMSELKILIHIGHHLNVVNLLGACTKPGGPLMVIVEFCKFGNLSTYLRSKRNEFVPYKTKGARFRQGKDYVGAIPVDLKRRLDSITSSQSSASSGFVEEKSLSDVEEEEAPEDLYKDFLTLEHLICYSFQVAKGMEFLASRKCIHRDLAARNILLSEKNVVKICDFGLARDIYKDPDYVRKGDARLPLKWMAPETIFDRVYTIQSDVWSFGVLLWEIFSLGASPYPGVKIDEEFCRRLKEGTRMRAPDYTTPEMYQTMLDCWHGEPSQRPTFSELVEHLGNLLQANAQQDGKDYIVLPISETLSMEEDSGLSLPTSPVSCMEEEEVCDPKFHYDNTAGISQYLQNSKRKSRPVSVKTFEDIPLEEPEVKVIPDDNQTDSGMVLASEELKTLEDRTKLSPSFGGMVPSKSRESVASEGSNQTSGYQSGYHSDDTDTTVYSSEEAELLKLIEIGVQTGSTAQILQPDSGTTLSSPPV
Experimental for HCT116 p53−/− parent: This method is performed based on the principle that viable cells can reduce yellow colored MTT (3-(4,5-dimethylthiazol-2-yl)-2,5-diphenyltetrazolium bromide) salt to purple colored formazan. The intensity of the purple colored produced is directly proportional to number of viable cells, which can be measured calorimetrically. […] The assay was carried out in 2 technical replicates for each concentration and in 3 biological replicates. Alongside blank and controls were included and incubated for 96 hrs. At the end of the assay time point 10 μl of MTT/well (Sigma) (10 mg/ml) was added and incubated until the appearance of violet formazan crystals. The formazan was dissolved with 100 μl/well 10% aqueous SDS (pH: 5.5) by incubating the plates at 37° C. overnight. The optical density was measured at 540 nm using the Labsystem IMS reader and the 1050 values were determined using Chemorezist software.

For orientation: Ki means a measure of affinity in units of concentration, obtained from inhibition or displacement. Consider `CC1(C)CCC(c2ccc(Cl)cc2)=C(CN2CCN(c3ccc(C(=O)NS(=O)(=O)c4ccc(N[C@H](CCN5CCOCC5)CSc5ccccc5)c(S(=O)(=O)C(F)(F)F)c4)cc3)CC2)C1` [ABT-263, (R)4-(4-((4′-chloro-4,4-dimethyl-3,4,5,6-tetrahydro[1,1′-biphenyl]-2-yl)methyl)piperazin-1-yl)-N-((4-((4-morpholino-1-(phenylthio)butan-2-yl)amino)-3-((trifluoromethyl)sulfonyl)phenyl)sulfonyl)benzamide], for which the “response to ABT-263 compared to parent HCT116 p53−/− cells” value in [1] is “significant cross-resistance”. The “response to ABT-263” value in data set [2] and in [3] was “resistant” throughout. Besides, the Ki on Bcl-w was less than 1 nM.

By IC50 is commonly meant the midpoint of a concentration-inhibition curve. For `CCN(CCCOc1ccc2c(Nc3cc(CC(=O)Nc4cccc(F)c4)n[nH]3)ncnc2c1)CCOP(=O)(O)O` [AZD1152, 2-[ethyl-[3-[4-[[5-[2-(3-fluoroanilino)-2-oxoethyl]-1Hpyrazo[3 yl]amino]quinazolin7-yl]oxypropyl]amino]ethyldihydrogen phosphate], the IC50 in the data set on HCT116 p53+/+ parent (HCT-116, read-out: mean IC50) was 10 nM; with HCT116 p53−/− parent, greater than 50000 nM; in data set [4], 17 µM; in data set [5], 18 µM; in [6] it was 11 µM; in [7], greater than 50 µM. Further, the IC50 was greater than 50000 nM in data set [8]; greater than 50 µM in data set [9]; 36000 nM in [10]; 8000 nM in [11]; 70 nM in data set [12]; greater than 50 µM in data set [13]. Moreover, the IC50 in data set [14] and in [15] was greater than 50 µM in each case. Besides, the “fold increase of IC50 vs parent” value stood at 1700 fold in data set [4]; 1800 fold in data set [5]; 1100 fold in data set [6]; 3600 fold in data set [10]; 800 fold in [11]; 7 fold in data set [12].

Take `Cc1nc(N)sc1-c1ccnc(Nc2ccc(N3CCOCC3)cc2)n1` [CYC116, 4-methyl-5-(2-(4-morpholinophenylamino)pyrimidin-4-yl)thiazol-2-amine]: the “sensitization towards CYC116 by knockdown of Bcl-xL” value with HCT116 p53+/+ parent (Bcl-xL siRNA knockdown in HCT116 parent cell line (low Bcl-xL expression)) is listed as “no sensitization effect”. In addition, the IC50 was 340 nM with HCT116 p53+/+ parent (HCT-116, read-out: IC50 value); 6 µM in [16] (read-out: IC50 value); 0.9 µM in data set [16] (read-out: IC50 value after knockdown of Bcl-xL); no more than 4.42 µM in the data set on primary tumor samples (13 sensitive primary tumor samples); no more than 95 µM in the data set on primary tumor samples (14 resistant primary tumor samples). In the data set on CYP1A1, the “up-regulation of CYP1A1” value is on record as “not detected”. For the same molecule, the “inhibition of VEGFR2” value at VEGFR2 is reported as “inhibits”. Also, the “inhibition of Flt-3” value at Flt-3 is on record as “inhibits”.

For the molecule `O=C(O)c1ccc(Nc2ncc3c(n2)-c2ccc(Cl)cc2C(c2c(F)cccc2F)=NC3)cc1` [MLN8054, 4-[[9-chloro-7-(2,6-difluorophenyl)-5H-pyrimido[5,4-d][2]benzazepin-2-yl]amino]benzoic acid], the IC50 in the data set on HCT116 p53+/+ parent (HCT-116, read-out: mean IC50) amounted to 190 nM; with HCT116 p53−/− parent, 170 nM; in [4] it was 31 µM; in [5] it was 15 µM; in data set [6] it was 16 µM; in data set [7], 30 µM. Further, the half-inhibitory concentration (IC50) in [8] amounted to 3000 nM; in data set [9] it was 18 µM; in [10], 2000 nM; in data set [11], 2000 nM; in [12] it was 400 nM; in data set [13] it was 22 µM. Further, the IC50 in [14] is 18.6 µM; in [15], 39 µM. In addition, the “fold increase of IC50 vs parent” value in data set [4] worked out at 163 fold; in data set [5] it was 79 fold; in data set [6] it was 84 fold; in data set [7], 176 fold; in [8], 18 fold; in [9] it was 106 fold. For the same molecule, the “fold increase of IC50 vs parent” value is reported as 10 fold in data set [10]; 10 fold in data set [11]; 2 fold in [12]; 129 fold in [13]; 109 fold in data set [14]; 229 fold in data set [15].

`Cc1cc(Nc2cc(N3CCN(C)CC3)nc(Sc3ccc(NC(=O)C4CC4)cc3)n2)n[nH]1` [VX-680, N-[4-[4-[4-methylpiperazin-1-yl)-6-[(5-methyl-1H-pyrazol-3-yl)amino]pyrimidin-2-yl]sulfanylphenyl]cyclopropanecarboxamide]: the IC50 in the data set with HCT116 p53+/+ parent (HCT-116, read-out: mean IC50) amounted to 30 nM; in the data set with HCT116 p53−/− parent, 100 nM; in data set [4] it was 1.9 µM; in data set [5], 2 µM; in data set [6], 1 µM; in data set [7], 4 µM. Also, the IC50 in [8] is 2000 nM; in data set [9], 2.4 µM; in data set [10] it was 2600 nM; in data set [11], 700 nM; in data set [12] it was 90 nM; in data set [13], 0.8 µM. The IC50 in data set [14] turned out to be 1.5 µM; in data set [15] it was 3 µM. Besides, the “fold increase of IC50 vs parent” value in data set [4] is given as 63 fold; in data set [5] it was 67 fold; in data set [6], 33 fold; in data set [7], 40 fold; in data set [8], 20 fold; in data set [9] it was 24 fold. For the same molecule, the “fold increase of IC50 vs parent” value turned out to be 87 fold in data set [10]; 23 fold in data set [11]; 3 fold in data set [12]; 8 fold in data set [13]; 15 fold in data set [14]; 13 fold in [15].

The record behind these values is patent publication US20140336073A1, “METHOD OF DETERMINATION OF CANCER CELL DRUG SENSITIVITY TOWARDS AURORA KINASE INHIBITORS” (PALACKY UNIVERSITY, OLOMOUC, priority 2011, published 2014).
